Paper PMC11359531, “Establishment of Dissolution Test Method for Multi-Components in Traditional Chinese Medicine Preparations Based on In Vitro–In Vivo Correlation” (Pharmaceuticals, 2024)
Converted amounts (≈) assume the structure as drawn. “And” between values parts separate entries of the source, which are not always exact repeats. Equal entries are not always repeated. Where two headings read alike, the source gives them in different places.

What was measured:
[1] = Stability of Q-markers in plasma; parameters: species or system dog; conditions: n = 6
Method: The standard solutions of tetrahydropalmatine, corydaline, protopin, α-allocryptopine, and byakangelicin were prepared by dissolving them in acetonitrile to obtain a mixed standard stock solution, which was further diluted with acetonitrile to prepare a series of different concentration gradient mixed standard solutions. An internal standard solution of 25 ng/mL was prepared from betamethasone solution (500 μg/mL) diluted with acetonitrile. Blank dog blood was collected through intravenous blood sampling, and plasma was obtained by centrifugation. To prepare the standard plasma sample, 25 μL of the mixed standard solution was added to 100 μL of blank plasma, and 400 μL of acetonitrile was added and vortexed for protein precipitation. The supernatant was acquired by centrifugation and blown dry with nitrogen. Then, 100 μL of acetonitrile was added to the dried supernatant, and the resulting solution was mixed to gain the standard plasma sample. Different mixed standard solution including a serial of concentrations of tetrahydropalmatine: 0.625–25 ng/mL, corydaline: 0.625–25 ng/mL, protopin: 0.1–4 ng/mL, α-allocryptopine: 0.1–4 ng/mL, byakangelicin: 18.75–750 ng/mL were applied to prepare standard plasma sample and quality control (QC) samples of plasma as follows: 1.25, 5, and 20 ng/mL for tetrahydropalmatine and corydaline, […], and 37.5, 150, and 600 ng/mL for byakangelicin.

[2] = dog, in vivo
From the text: The Phoenix WinNonlin IVIVC tool was utilized to evaluate the relationship between in vivo drug dissolution rate and blood drug concentration, which utilizes the Unit Impulse Response (UIR) function for this purpose. By using intravenous administration as the input for the unit impulse response, the influence of drug absorption can be eliminated. The obtained UIR function will be utilized for the deconvolution of pharmacokinetic data to obtain the curve of cumulative drug absorption over time [50]. (8) Y(t)=A×exp[Alpha×(t×Ka−tlag)] in which Y(t) is unit impulse response, A is the coefficient value, Alpha is the exponential value, Ka is the absorption rate constant, tlag is the lag time.

[3] = Caco-2 transport assay (Peff); conditions: human
[4] = Solubility of Q-markers in dissolution media, dose number D0; conditions: for solubility at 24 h: thermodynamic from solid
Method: The solubility of the compounds was determined at physiologically relevant pH values (0.1 M of HCl, pH 1.2; acetate buffer, pH 4.5; and phosphate buffer, pH 6.8) as those in dissolution medium, by adding excess compounds to specific medium, vortexing for 30 s, and shaking for 24 h at 37 °C and 120 rpm using a constant temperature shaker. The supernatant was then diluted with an appropriate amount of methanol, and the concentration of each compound was determined using the HPLC method described in Section 3.2. The solubility was evaluated using the dose (D0) values [48], which describe the relationship between solubility and maximum dose strength according to Equation (1). […] (1) D0=M0/V0/CS
M0 was the highest dose of each component under single administration, it should be noted that since there is no sense of the maximum oral dose for the ingredients in herbal preparation, the content of each component in a single dose of the preparation is taken as the maximum administered dose.

[5] = External validation of IVIVC model with another brand of YZTs; conditions: beagle, dog, blood, po
From the text: (§1) In order to further apply the identified in vivo correlated dissolution conditions to different batches of YZTs, another brand of YZTs was selected for external validation of the dissolution conditions and IVIVC model results. The dissolution data of different brands in the identified media were input into the established IVIVC model to obtain the predicted blood concentration–time curve and to compare the PE% between the predicted value and the actual value.

[6] = dog, in vivo; remark: listed apart in the source
From the text: as §1

[7] = 0.1 M HCl, 37 °C, pH 1.2, simulated gastric fluid
[8] = acetate buffer, 37 °C, pH 4.5, aqueous buffer
[9] = phosphate buffer, 37 °C, pH 6.8, aqueous buffer
[10] = D0 = M0/V0/Cs, V0 = 250 mL, content of a single dose of YZTs

| Molecule | Relative content ([1]; 1.25 ng/mL, 6℃-6h) [%] | Relative content ([1]; 1.25 ng/mL, 20℃-24h) [%] | Relative content ([1]; 1.25 ng/mL, Freeze-thaw thrice) [%] | Relative content ([1]; 5 ng/mL, 6℃-6h) [%] | Relative content ([1]; 5 ng/mL, 20℃-24h) [%] | Relative content ([1]; 5 ng/mL, Freeze-thaw thrice) [%] | Relative content ([1]; 20 ng/mL, 6℃-6h) [%] | Relative content ([1]; 20 ng/mL, 20℃-24h) [%] | Relative content ([1]; 20 ng/mL, Freeze-thaw thrice) [%] | Papp at 120 min [3] [×10⁻⁶ cm/s] | solubility at 24 h [4, 7] [µg/mL] | solubility at 24 h [4, 8] [µg/mL] | solubility at 24 h [4, 9] [µg/mL] | solubility at 24 h ([4]; water) [µg/mL] | AUC [5] [ng·h/mL] | Cmax [5] [ng/mL] | Relative content ([1]; 0.2 ng/mL, 6℃-6h) [%] | Relative content ([1]; 0.2 ng/mL, 20℃-24h) [%] | Relative content ([1]; 0.2 ng/mL, Freeze-thaw thrice) [%] | Relative content ([1]; 0.5 ng/mL, 6℃-6h) [%] | further results |
| --- | --- | --- | --- | --- | --- | --- | --- | --- | --- | --- | --- | --- | --- | --- | --- | --- | --- | --- | --- | --- | --- |
| COc1cc2c(cc1OC)[C@@H]1Cc3ccc(OC)c(OC)c3CN1CC2 [Tetrahydropalmatine, tetrahydropalmatine] | 94.31 | 100.16 | 100.09 | 99.79 | 102.60 | 102.53 | 97.35 | 100.19 | 100.12 | 3.76 | 655 ± 43.3 (≈ 1840 µM) | 2670 ± 539 (≈ 7500 µM) | 19.7 ± 1.87 (≈ 55.4 µM) | 18.9 ± 1.57 (≈ 53.1 µM) | 59.9 | 16.4 |  |  |  |  | UIR parameter A1, Estimate ([2]; beagle): 0.04 ng/mL; UIR parameter Ka, Estimate ([2]; beagle): 1.28 h⁻¹; UIR parameter Tlag, Estimate ([2]; beagle): 0.40 h; UIR parameter alpha1, Estimate ([2]; beagle): 1.30 h⁻¹ |
| COc1cc2c(cc1OC)[C@H]1[C@@H](C)c3ccc(OC)c(OC)c3CN1CC2 [Corydaline, corydaline] | 98.22 | 98.02 | 97.95 | 93.89 | 102.35 | 102.28 | 107.01 | 100.80 | 100.73 | 3.94 | > 2380 | > 2380 | 2380 ± 348 (≈ 6460 µM) | 5.03 ± 0.85 (≈ 13.6 µM) | 34.3 | 12 |  |  |  |  |  |
| protopine |  |  |  |  |  |  |  |  |  |  |  |  |  |  |  |  | 99.33 | 96.07 | 96.00 | 93.89 | Relative content ([1]; 0.5 ng/mL, 20℃-24h): 100.60%; Relative content ([1]; 0.5 ng/mL, Freeze-thaw thrice): 100.53%; Relative content ([1]; 3.2 ng/mL, 6℃-6h): 103.43%; Relative content ([1]; 3.2 ng/mL, 20℃-24h): 101.63%; Relative content ([1]; 3.2 ng/mL, Freeze-thaw thrice): 101.56%; Solubility, 0.1 M HCl (pH 1.2): 4700 ± 384 µg/mL; Solubility, Acetate Buffer (pH 4.5): 5403 ± 378 µg/mL; Solubility, Phosphate Buffer (pH 6.8): 535 ± 17.2 µg/mL; In Vitro Caco-2 Cell Permeability (Peff) (Caco-2 cells): 7.49 ± 0.0803 ×10⁻⁶ cm/s; UIR parameter A1, Estimate [2]: 0 ng/mL; UIR parameter Ka, Estimate [2]: 1.36 h⁻¹; UIR parameter Tlag, Estimate [2]: 0.44 h; UIR parameter alpha1, Estimate [2]: 1.35 h⁻¹; Observed AUC [6]: 205.15; Observed Cmax [6]: 1.15 ng/mL; Predicted AUC [6]: 218.10; Predicted Cmax [6]: 1.26 ng/mL |
| COc1ccc2c(c1OC)CN(C)CCc1cc3c(cc1C(=O)C2)OCO3 [α-allocryptopine] |  |  |  |  |  |  |  |  |  | 13.4 | 48.7 ± 4.08 (≈ 132 µM) | 45.8 ± 2.56 (≈ 124 µM) | 44.7 ± 2.17 (≈ 121 µM) | 2380 ± 521 (≈ 6430 µM) | 2.04 | 0.5 | 91.78 | 100.07 | 100.00 | 100.95 | Relative content ([1]; 0.5 ng/mL, 20℃-24h): 101.06%; Relative content ([1]; 0.5 ng/mL, Freeze-thaw thrice): 100.99%; Relative content ([1]; 3.2 ng/mL, 6℃-6h): 107.49%; Relative content ([1]; 3.2 ng/mL, 20℃-24h): 98.70%; Relative content ([1]; 3.2 ng/mL, Freeze-thaw thrice): 98.63%; D0, 0.1 M HCl [4, 10]: 0.5441 and <1; D0, Acetate Buffer [4, 10]: 0.5786 and <1; D0, Phosphate Buffer [4, 10]: 0.5928 and <1 |
| COc1c2ccoc2c(OC[C@@H](O)C(C)(C)O)c2oc(=O)ccc12 [Byakangelicin, byakangelicin] |  |  |  |  |  |  |  |  |  | 8.95 | 2660 ± 56 (≈ 7960 µM) | 1290 ± 87.4 (≈ 3860 µM) | 7.63 ± 1.27 (≈ 22.8 µM) | 35.9 ± 5.85 (≈ 107 µM) | 54.5 | 29.6 |  |  |  |  | Relative content ([1]; 37.5 ng/mL, 6℃-6h): 90.02%; Relative content ([1]; 37.5 ng/mL, 20℃-24h): 93.00%; Relative content ([1]; 37.5 ng/mL, Freeze-thaw thrice): 92.93%; Relative content ([1]; 150 ng/mL, 6℃-6h): 93.99%; Relative content ([1]; 150 ng/mL, 20℃-24h): 93.39%; Relative content ([1]; 150 ng/mL, Freeze-thaw thrice): 93.32%; Relative content ([1]; 600 ng/mL, 6℃-6h): 88.54%; Relative content ([1]; 600 ng/mL, 20℃-24h): 89.73%; Relative content ([1]; 600 ng/mL, Freeze-thaw thrice): 89.66% |
